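The compound was tested at five concentrations on cells cultured in 96-well plates, with a 48-hour exposure period. TGI: total growth inhibition.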
Assays:
Assay in all cases: NCI tumour cell line growth inhibition, 48 h
[1] = tested on: DLD-1 colon
[2] = tested on: KM20L2 colon
[3] = tested on: LXFL 529 NSCLC
[4] = tested on: M19-MEL melanoma
[5] = tested on: SNB-78 CNS
[6] = tested on: XF 498 CNS
[7] = tested on: DMS 273 small cell lung
[8] = tested on: P388 leukemia
[9] = tested on: P388/ADR leukemia
[10] = tested on: SN12K1 renal

## CN(C)c1ccc(/C=C/C(=O)O)cc1
[1]
  TGI: > 100 µM
[2]
  TGI: > 100 µM
[3]
  TGI: > 100 µM
[4]
  TGI: > 100 µM
[5]
  TGI: > 100 µM
[6]
  TGI: > 100 µM

## Cn1ccnc1CCc1ccc(Cl)c(Cl)c1
[1]
  TGI: > 100 µM
[7]
  TGI: > 100 µM
[2]
  TGI: > 100 µM
[3]
  TGI: > 100 µM
[4]
  TGI: > 100 µM
[5]
  TGI: > 100 µM

## C[n+]1c2ccccc2c(/C=N\NS(=O)(=O)c2ccc(Cl)cc2)c2ccccc21
[1]
  TGI: > 100 µM
[7]
  TGI: > 100 µM
[2]
  TGI: > 100 µM
[4]
  TGI: > 100 µM
[5]
  TGI: > 100 µM
[6]
  TGI: > 100 µM

## CCN(CC)CCOC(=O)Cc1cccc2c(=O)cc(-c3ccccc3)oc12
[1]
  TGI: > 195 µM
[7]
  TGI: > 625 µM
[2]
  TGI: > 214 µM
[4]
  TGI: > 223 µM
[8]
  TGI: > 625 µM
[9]
  TGI: > 625 µM
[10]
  TGI: 127 µM
[5]
  TGI: > 175 µM
[6]
  TGI: 82.6 µM

## O=[N+]([O-])c1ccc([N+]2=NC(c3ccccc3)=NN(c3ccccc3)C2)cc1
[1]
  TGI: > 100 µM
[7]
  TGI: > 100 µM
[2]
  TGI: > 100 µM
[3]
  TGI: > 100 µM
[4]
  TGI: > 100 µM
[5]
  TGI: > 100 µM
[6]
  TGI: 58.9 µM

## COc1cccc(-c2nccc3c(OCc4ccccc4)c(OC)c(OC)cc23)c1
[1]
  TGI: > 100 µM
[7]
  TGI: > 100 µM
[2]
  TGI: > 100 µM
[3]
  TGI: > 100 µM
[4]
  TGI: > 100 µM
[5]
  TGI: > 100 µM
[6]
  TGI: > 100 µM

## Cc1c(-c2nnc(-c3ccccc3)o2)c(=O)n(-c2ccccc2)n1C
[1]
  TGI: > 100 µM
[7]
  TGI: > 100 µM
[2]
  TGI: > 100 µM
[3]
  TGI: > 100 µM
[4]
  TGI: > 100 µM
[5]
  TGI: > 100 µM
[6]
  TGI: > 100 µM

## O=C(CSc1nnc(-c2ccc(N=Cc3ccc(Cl)cc3)cc2)o1)Nc1ccc([N+](=O)[O-])cc1
[7]
  TGI: 30.4 µM
[2]
  TGI: 73.5 µM
[3]
  TGI: 35.9 µM
[4]
  TGI: 36.9 µM
[5]
  TGI: 84.4 µM
[6]
  TGI: 47.1 µM

## CCCCn1c2ccccc2c2ccc3c(c21)C(=O)C=CC3=O
[1]
  TGI: > 100 µM
[7]
  TGI: > 100 µM
[2]
  TGI: > 100 µM
[3]
  TGI: > 100 µM
[4]
  TGI: 1.04 µM
[5]
  TGI: > 100 µM
